Reference: the supplement of paper PMC5908809

Key:
[1] = system: normal NK cells expanded with K562-aAPC; experiment: drug sensitivity score (DSS) (DSS units); higher = more sensitive; extreme values may be limits of the assay; conditions: 72 h; IL-2 2.5 ng/mL
Procedure: (§1)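 Drug sensitivity and resistance testing on K562-aAPC-expanded normal NK cells: 5 concentrations (10-fold steps over a 10,000-fold range), 72 h at 37 °C, viability by CellTiter-Glo normalised to DMSO and benzethonium chloride controls; DSS from the fitted curve.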

[2] = system: normal NK cells expanded with K562-aAPC; experiment: percent inhibition of viability; higher = more inhibition; conditions: 72 h, IL-2 2.5 ng/mL
Procedure: as §1

[3] = system: normal primary NK cells, pool 1 (3 donors), resting (IL-2 0 ng/mL); experiment: as above; conditions: 72 h
[4] = system: normal primary NK cells, pool 2 (3 donors) (IL-2 2.5 ng/mL); experiment: as above; conditions: 72 h
[5] = system: KAI3 (IL-2 2.5 ng/mL); experiment: as above; conditions: 72 h
[6] = system: KHYG-1 (IL-2 2.5 ng/mL); experiment: as above; conditions: 72 h
[7] = system: NKL (IL-2 2.5 ng/mL); experiment: as above; conditions: 72 h
[8] = system: YT (IL-2 2.5 ng/mL); experiment: as above; conditions: 72 h
[9] = system: IMC-1 (IL-2 20 ng/mL); experiment: as above; conditions: 72 h
[10] = system: DERL-7 (IL-2 2.5 ng/mL); experiment: as above; conditions: 72 h
[11] = system: NK-92 (IL-2 2.5 ng/mL); experiment: as above; conditions: 72 h
[12] = system: normal primary NK cells, pool 3 (3 donors) (IL-2 2.5 ng/mL); experiment: as above; conditions: 72 h
[13] = system: NK-YS (IL-2 2.5 ng/mL); experiment: as above; conditions: 72 h
[14] = system: normal primary NK cells, pool 1 (3 donors) (IL-2 2.5 ng/mL); experiment: as above; conditions: 72 h
[15] = system: SNK-6 (IL-2 2.5 ng/mL); experiment: as above; conditions: 72 h
[16] = system: normal primary NK cells, pool 1 (3 donors), resting (IL-2 0 ng/mL); experiment: drug sensitivity score (DSS) (DSS units); higher = more sensitive; extreme values may be limits of the assay; conditions: 72 h
[17] = system: normal primary NK cells, pool 2 (3 donors) (IL-2 2.5 ng/mL); experiment: as above; conditions: 72 h
[18] = system: KAI3 (IL-2 2.5 ng/mL); experiment: as above; conditions: 72 h
[19] = system: KHYG-1 (IL-2 2.5 ng/mL); experiment: as above; conditions: 72 h
[20] = system: NKL (IL-2 2.5 ng/mL); experiment: as above; conditions: 72 h
[21] = system: YT (IL-2 2.5 ng/mL); experiment: as above; conditions: 72 h
[22] = system: IMC-1 (IL-2 20 ng/mL); experiment: as above; conditions: 72 h
[23] = system: DERL-7 (IL-2 2.5 ng/mL); experiment: as above; conditions: 72 h
[24] = system: NK-92 (IL-2 2.5 ng/mL); experiment: as above; conditions: 72 h
[25] = system: normal primary NK cells, pool 3 (3 donors) (IL-2 2.5 ng/mL); experiment: as above; conditions: 72 h
[26] = system: NK-YS (IL-2 2.5 ng/mL); experiment: as above; conditions: 72 h
[27] = system: normal primary NK cells, pool 1 (3 donors) (IL-2 2.5 ng/mL); experiment: as above; conditions: 72 h
[28] = system: SNK-6 (IL-2 2.5 ng/mL); experiment: as above; conditions: 72 h

CN(C)CCOc1ccc(/C(=C(/CCCl)c2ccccc2)c2ccccc2)cc1 [Toremifene] (max concentration tested 10000 nM)
Conditions | drug sensitivity score
[1] | 0.54
[16] | 5.83
[17] | 3.11
[18] | 4.76
[19] | 3.24
[20] | 2.74
[21] | 2.42
[22] | 0.01
[23] | 5.52
[24] | 3.98
[25] | 1.64
[26] | 0.96
[27] | 2.96
[28] | 6.85

percent inhibition of viability [%]
Conditions | 1 nM | 10 nM | 100 nM | 1000 nM | 10000 nM
[2] | -7.54 | -7.98 | -6.66 | -5.37 | 22.4
[3] | -10.2 | -1.02 | 4.14 | 7.87 | 82.2
[4] | -4.96 | -0.07 | -1.79 | 3.55 | 49
[5] | 8.55 | 1.95 | 5.19 | 8.64 | 60.7
[6] | -7.33 | 4.52 | -9.46 | 6.72 | 42
[7] | 7.08 | 8.77 | -8.23 | 8.2 | 32.7
[8] | -5.23 | 2.7 | -3.67 | 5.54 | 33
[9] | -0.16 | 2.16 | -3.63 | 1.2 | 10.6
[10] | 1.82 | 1.64 | 5.42 | 24.2 | 53.5
[11] | -4.85 | -1.12 | 2.18 | 6.43 | 54.2
[12] | -2.58 | -5.78 | 0.52 | 5.83 | 23.4
[13] | 1.32 | -4.28 | -2.7 | -0.4 | 25.6
[14] | -5.3 | -17.6 | -3 | -8.46 | 64.3
[15] | 13 | 30.5 | -2.4 | 28.2 | 29

CC(=O)Nc1cccc(-n2c(=O)n(C3CC3)c(=O)c3c(Nc4ccc(I)cc4F)n(C)c(=O)c(C)c32)c1 [Trametinib] (max concentration tested 250 nM)
Conditions | drug sensitivity score
[1] | 0
[16] | 0
[17] | 0
[18] | 4.13
[19] | 10.7
[20] | 15.5
[21] | 0
[22] | 0.89
[23] | 10.2
[24] | 0.89
[25] | 0.89
[26] | 1.13
[27] | 1.13
[28] | 0

percent inhibition of viability [%]
Conditions | 0.025 nM | 0.25 nM | 2.5 nM | 25 nM | 250 nM
[2] | -1.03 | -2.71 | -0.52 | -0.63 | 1.09
[3] | -7.3 | -4.37 | 3.53 | -1.6 | 4.62
[4] | -4.75 | -6.13 | -1.09 | 4.26 | -5.37
[5] | -0.65 | 10.4 | 14.7 | 17.6 | 21.2
[6] | -1.89 | -0.88 | 17.2 | 47.1 | 54.2
[7] | -13.6 | -3.27 | 31.2 | 60.9 | 62.5
[8] | -2.64 | -1.54 | 0.86 | 2.64 | -0.71
[9] | -7.84 | -6.23 | -12.6 | -5.74 | -11.9
[10] | 1.02 | 7.15 | 24.3 | 38.5 | 49.2
[11] | -8.96 | -8.36 | -15.1 | -31.2 | -2.14
[12] | -14.5 | -14.1 | -12 | -11.3 | -11.4
[13] | -3.76 | 0.79 | 3.16 | 13.2 | 9.03
[14] | -8.95 | -7.23 | 10.8 | 8.62 | 17.9
[15] | 8.07 | 2.1 | -22.8 | -18.2 | -19.1
